Earlier results on one molecule are cited in patent publication US8309122B2 (Endo Pharmaceuticals Inc., priority 2001, dated 2012).

For this data set the following is noted: metabolized principally in the liver.

On to `CN1CC[C@]23c4c5ccc(O)c4O[C@H]2C(=O)CC[C@@]3(O)[C@H]1C5.Cl` [Oxymorphone, 14-hydroxydihydromorphinone hydrochloride], for which the oral bioavailability result was “about 10%”.
